In patent publication US20250387375A1, “SOFALCONE DERIVATIVES AND MEDICAL USE THEREOF” (KAOHSIUNG MEDICAL UNIVERSITY, priority 2024, published 2025):

Experiments:
[1] = tested on: TxB2 formation in human platelet suspensions; assay: Measurement of platelet TxB2 level after arachidonic acid; assay type: cell-based; conditions: AA 100 μM; human platelet suspension
Protocol: (§1) FIGS. 6A and 6B show the effect of sofalcone and its derivatives on TxB2 and PGE2 productions induced by arachidonic acid (AA). […] After human platelet suspension was pretreated with dimethyl sulfoxide (DMSO) or sofalcone (SFC), sofalcone derivative 3, and sofalcone derivative 30, arachidonic acid (100 μM) was added to stimulate the productions of arachidonic acid metabolites TxB2 and PGE2. Data are presented as mean±standard error of the mean (n>5). Compared with the control group, *P<0.05, **P<0.01, ***P<0.001. ASA: Aspirin.
(§2) Blood samples were collected from healthy donors, and acid-citrate-dextrose (ACD) solution was used as an anticoagulant. The blood samples were centrifuged to obtain platelets, and residual plasma was removed by washing to prepare platelet suspension.
(§3) The compound to be tested was added to the platelet suspension and reacted for 3 minutes at 37° C. under stirring (1200 rpm), then arachidonic acid (AA) (100 μM) was added to react for 4 minutes, and finally EDTA (5 mM) was added to terminate the reaction. The above sample was centrifuged at 13,000 rpm for 1 minute at 4° C. and the supernatant was collected. The concentrations of TxB2 and PGE2 in the supernatant were measured respectively using enzyme immunoassay kits (TxB2 ELISA kit and PGE2 ELISA kit; Cayman Chemical Company).

[2] = tested on: human platelet suspension (platelet aggregation caused by collagen); assay: Platelet aggregation reaction test, collagen-induced; assay type: cell-based; conditions: read-out: Collagen IC 50
Protocol: as §2
(§4) In the experimental method, a platelet aggregometer (Chrono-Log Co., Havertown, PA, USA) was used for tests. The compound to be tested was added to the platelet suspension and reacted for 3 minutes at 37° C. with stirring (1200 rpm). Then, platelet stimulator U46619 or collagen was added to initiate platelet aggregation, and the test time was 5 minutes. The principle of the platelet aggregation test was: when platelets were stimulated to induce aggregation reaction, the light transmission of the platelet suspension would increase; by calculating changes in light transmission of the platelet suspension before and after being stimulated, the percentage of platelet aggregation could be obtained.

[3] = tested on: FeCl3-induced carotid artery thrombosis; assay: Ferric chloride-induced carotid artery thrombosis in mice; assay type: in vivo, BALB/c mice; conditions: oral gavage
Protocol: Mice were orally administered by gavage with sofalcone (SFC, once daily for 4 days), derivative 17, or aspirin (ASA) (single administration only). The mice are then treated with ferric chloride solution to induce carotid artery thrombosis, and an ultrasound imaging system was used to monitor the time required for the thrombus to block the carotid artery (occlusion time). Data are presented as mean±standard […] error of the mean (n≥6). Compared with the control group, *P<0.05, ***P<0.001. In this experiment, a ferric chloride-induced arterial injury was used to evaluate the antithrombotic effect of the to-be-tested compound. The to-be-tested compound was orally administered by gavage to BALB/c mice aged approximately 6-8 weeks. Then, the mice were anesthetized with isoflurane, the right carotid artery was exposed through surgery, and filter paper (2×4 mm^2) containing 8.5% ferric chloride was attached to the right carotid artery for 3 minutes. After removing the filter paper, remaining ferric chloride was wiped off with cotton balls soaked with physiological saline, and an ultrasonic imaging system (VEVO 2100 system, VisualSonics) equipped with a Doppler flow probe (MS400, 18-38 MHz) was used to monitor the blood flow of the right carotid artery. The occlusion time was determined when the blood flow completely stopped for at least 1 minute. If the occlusion time was longer than 30 minutes, it was considered the end point of the experiment.

[4] = tested on: human platelet suspension (platelet aggregation caused by TxA2 agonist U46619); assay: Platelet aggregation reaction test, U46619-induced; assay type: cell-based
Protocol: as §2, §4

[5] = tested on: PGE2 formation in human platelet suspensions; assay: Measurement of platelet PGE2 level after arachidonic acid; assay type: cell-based; conditions: AA 100 μM; human platelet suspension
Protocol: as §1, §2, §3

[6] = tested on: normal hemostatic function (tail bleeding); assay: Mouse bleeding test (tail bleeding time); assay type: in vivo, BALB/c mice
Protocol: Mice were orally administered by gavage with sofalcone (SFC, once daily for 4 days), derivative 17, or aspirin (ASA) (single administration only). Then the mouse's tail was transected and the tail bleeding time was recorded. Data are presented as mean±standard error of the mean (n≥6). Compared with the control group, ***P<0.001. n.s.: No significant difference. In the present invention, the effect of the to-be-tested compound on normal hemostasis was evaluated by docking off the tail ends of the mice to cause bleeding. The to-be-tested compound was orally administered to BALB/c mice aged approximately 6-8 weeks by gavage. Then, the mice were anesthetized with isoflurane, and 2 mm of the distal end of their tails were excised. The tails of the mice were immersed in physiological saline at 37° C., and the bleeding time was observed. The determination of bleeding time was: the time required from the time the mouse tail was cut off until the bleeding completely stopped.

human recombinant COX1 = target: T1, human recombinant COX1 (Homo sapiens, UniProt P23219); assay: COX1 enzyme activity assay; assay type: biochemical
T1 construct: purchased Cayman Chemical Company
Protocol: (§5) COX1 and COX2 enzyme activities were analyzed by using a human COX inhibitor screening assay kit (Cayman Chemical Company). After allowing the to-be-tested compound, human recombinant COX1 or COX2 enzyme and heme to stand at 37° C. for 15 minutes, AA (10 μM) was added to react for 2 minutes. Then, stannous chloride was added to reduce PGH2, the product of the above COX reaction, to PGF2α. Finally, the PGF2α level in the sample was measured by using enzyme immunoassay, and the inhibition percentage was calculated.

TxA2 receptor = target: T2, TxA2 receptor (Homo sapiens, UniProt P21731); assay: Competitive antagonism of U46619-induced platelet aggregation (U46619 concentration-response curves); assay type: cell-based; conditions: for mode of action at TxA2 receptor: concluded from parallel right shift of U46619 curves; for U46619 concentration-platelet aggregation response curve / maximum level of platelet aggregation: U46619 0.1-10 μM
T2 construct: The blood samples were centrifuged to obtain platelets, and residual plasma was removed by washing to prepare platelet suspension; endogenous in cells; host or cells: washed human platelets from healthy donors
T2 sequence (P21731 1-343): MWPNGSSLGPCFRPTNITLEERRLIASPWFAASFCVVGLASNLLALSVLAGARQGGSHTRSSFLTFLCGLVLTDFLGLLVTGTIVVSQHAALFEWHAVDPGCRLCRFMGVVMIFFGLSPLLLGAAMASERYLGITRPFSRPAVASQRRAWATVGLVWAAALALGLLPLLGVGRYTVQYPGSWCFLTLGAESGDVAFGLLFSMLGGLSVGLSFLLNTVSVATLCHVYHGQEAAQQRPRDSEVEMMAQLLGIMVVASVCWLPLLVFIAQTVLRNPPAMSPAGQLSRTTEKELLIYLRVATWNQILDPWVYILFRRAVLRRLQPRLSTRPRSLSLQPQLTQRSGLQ
Protocol: After human platelet suspension was pretreated with dimethyl sulfoxide (DMSO) or sofalcone (SFC) (FIG. 5A), sofalcone derivative 3 (FIG. 5B), and sofalcone derivative 30 (FIG. 5C), different concentrations of U46619 (0.1-10 μM) were added to stimulate platelet aggregation reaction. Data are presented as mean±standard error of the mean (n=5).
as §2, §4
After pretreating human platelet suspensions with dimethylsulfoxide (DMSO), sofalcone (20 μM and 50 μM), and sofalcone derivatives 3 or 30 (0.2 μM and 0.5 μM, respectively), different concentrations of U46619 (0.1-10 μM) were added to stimulate platelet aggregation.

human recombinant COX2 = target: T3, human recombinant COX2 (Homo sapiens, UniProt P35354); assay: COX2 enzyme activity assay; assay type: biochemical
T3 construct: purchased Cayman Chemical Company
T3 sequence (P35354 18-604): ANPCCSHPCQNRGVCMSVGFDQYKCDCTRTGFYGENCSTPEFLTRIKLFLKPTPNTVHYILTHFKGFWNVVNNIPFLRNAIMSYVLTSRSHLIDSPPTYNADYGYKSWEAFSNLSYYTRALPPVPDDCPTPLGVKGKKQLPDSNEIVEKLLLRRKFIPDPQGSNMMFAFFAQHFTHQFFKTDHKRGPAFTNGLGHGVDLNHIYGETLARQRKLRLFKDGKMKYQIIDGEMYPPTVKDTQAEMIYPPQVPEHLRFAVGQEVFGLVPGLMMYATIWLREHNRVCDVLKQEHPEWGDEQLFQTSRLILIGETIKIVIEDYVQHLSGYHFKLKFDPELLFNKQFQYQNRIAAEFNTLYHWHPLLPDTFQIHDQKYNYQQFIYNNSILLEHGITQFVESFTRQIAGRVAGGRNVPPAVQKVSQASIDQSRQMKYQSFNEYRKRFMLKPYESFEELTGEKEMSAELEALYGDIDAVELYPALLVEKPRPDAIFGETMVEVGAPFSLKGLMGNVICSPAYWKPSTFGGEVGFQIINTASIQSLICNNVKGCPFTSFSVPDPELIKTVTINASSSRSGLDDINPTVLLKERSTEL
Protocol: as §5

T1 sequence (P23219 24-599): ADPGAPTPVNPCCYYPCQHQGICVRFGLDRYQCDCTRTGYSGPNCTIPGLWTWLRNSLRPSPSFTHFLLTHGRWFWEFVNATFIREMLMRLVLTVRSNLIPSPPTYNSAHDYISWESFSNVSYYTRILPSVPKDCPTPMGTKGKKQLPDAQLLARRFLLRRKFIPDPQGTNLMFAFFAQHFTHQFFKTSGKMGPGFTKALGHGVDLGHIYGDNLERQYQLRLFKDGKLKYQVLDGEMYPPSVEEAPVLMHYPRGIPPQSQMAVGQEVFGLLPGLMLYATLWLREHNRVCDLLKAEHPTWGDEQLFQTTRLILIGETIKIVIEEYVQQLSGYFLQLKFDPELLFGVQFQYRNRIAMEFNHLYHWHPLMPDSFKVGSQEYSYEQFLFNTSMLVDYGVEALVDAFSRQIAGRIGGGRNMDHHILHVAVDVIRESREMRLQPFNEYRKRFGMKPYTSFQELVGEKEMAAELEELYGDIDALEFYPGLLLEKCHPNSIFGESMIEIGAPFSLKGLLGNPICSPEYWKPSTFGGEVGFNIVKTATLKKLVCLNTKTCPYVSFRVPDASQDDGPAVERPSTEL

Row | Compound | formation of TxB2 induced by arachidonic acid [1] | IC50 [2] [nM] | carotid artery occlusion time ([3]; single dose 25 mg/kg) | IC50 [4] [nM] | formation of PGE2 induced by arachidonic acid [5] | mode of action at TxA2 receptor (TxA2 receptor) | further results
1 | CC(=O)Oc1ccccc1C(=O)O [Aspirin, reference compound] | inhibited | 79000 | prolonged | > 200000 | inhibited |  | tail bleeding time ([6]; mice, oral gavage, single dose 25 mg/kg): significantly prolonged; inhibition at 200 µM (human recombinant COX1; read-out: COX1 (Inhibition rate %)): 26%
2 | O=C(O)CCCOc1ccccc1C(=O)/C=C/c1ccc(F)cc1 [Compound 3] | inhibited | 30 |  | 70 | inhibited | competitively antagonize | U46619 concentration-platelet aggregation response curve (TxA2 receptor; pretreatment 0.2 μM and 0.5 μM): shifted parallelly to the right; maximum level of platelet aggregation (TxA2 receptor; pretreatment 0.2 μM and 0.5 μM): not significantly affected; COX2 (Inhibition rate %) (human recombinant COX2; 10 μM): 26.7%; COX2 (Inhibition rate %) (human recombinant COX2; 100 μM): 48.6%; COX1 (Inhibition rate %) (human recombinant COX1; 1 μM): 19.1%; COX1 (Inhibition rate %) (human recombinant COX1; 10 μM): 61.6%; COX1 (Inhibition rate %) (human recombinant COX1; 100 μM): 89.8%; COX1 versus COX2 inhibitory effect (human recombinant COX1; human recombinant COX1 and COX2, 1-100 μM): better inhibitory effect on COX1
3 | CC(C)=CCOc1ccc(/C=C/C(=O)c2ccc(OCC=C(C)C)cc2OCCCC(=O)[O-])cc1.[K+] [Compound 17] |  | 320 | significantly prolonged | 40 |  |  | carotid artery occlusion time ([3]; single dose 10 mg/kg): significantly prolonged; tail bleeding time ([6]; mouse, in vivo, po, 10 mg/kg): did not affect; tail bleeding time ([6]; mouse, in vivo, po, 25 mg/kg): did not affect
4 | CC(C)=CCOc1ccc(/C=C/C(=O)c2ccc(OCC=C(C)C)cc2OCC(=O)O)cc1 [SFC, sofalcone] | did not inhibit | 49000 |  | 16000 | did not inhibit | competitively antagonize | U46619 concentration-platelet aggregation response curve (TxA2 receptor; pretreatment 20 μM and 50 μM): shifted parallelly to the right; maximum level of platelet aggregation (TxA2 receptor; pretreatment 20 μM and 50 μM): not significantly affected; carotid artery occlusion time ([3]; 50 mg/kg per day for 4 days): significantly prolonged; tail bleeding time ([6]; mice, oral gavage, 50 mg/kg per day for 4 days): did not affect
